Patent US9611277B2 (Janssen Pharmaceutica NV, priority 2013, dated 2017)

Key:
[1] = target: rat orexin 1 receptor (Rattus norvegicus, UniProt P56718); test: Rat orexin 1 receptor radioligand binding; conditions: rat orexin 1 receptor; averages of 2-20 runs; read-out: rOX1 Ki
How it was run: (§1)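 Ki values derive from one-site competition IC50s corrected with the radioligand's predetermined Kd, triplicates per run, averaged over 2-20 runs. Cell homogenates (rat or human OX1R) compete against [^3H]-thiazolyl-oxadiazolyl-pyrrolidine methanone in PBS; 10 μM almorexant sets nonspecific binding; scintillation counting after washing.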

[2] = target: human orexin 1 receptor (Homo sapiens, UniProt O43613); test: Human orexin 1 receptor radioligand binding; conditions: human orexin 1 receptor; averages of 2-20 runs; read-out: hOX1 Ki
How it was run: as §1

[3] = target: human orexin 2 receptor (Homo sapiens (Human), UniProt O43614); test: Human orexin 2 receptor radioligand binding; conditions: human orexin 2 receptor; averages of 2-20 runs; read-out: hOX2 Ki
How it was run: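 Ki derived from one-site competition IC50 using predetermined Kd of [3H]-EMPA, triplicate points, 2-20 runs averaged. Binding done on homogenized HEK293 cells stably expressing human orexin 2 receptor, DMSO ≤0.1%, with 10 μM almorexant defining nonspecific binding; filtered, washed, scintillation counted.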

Chain of human orexin 2 receptor (O43614 whole entry): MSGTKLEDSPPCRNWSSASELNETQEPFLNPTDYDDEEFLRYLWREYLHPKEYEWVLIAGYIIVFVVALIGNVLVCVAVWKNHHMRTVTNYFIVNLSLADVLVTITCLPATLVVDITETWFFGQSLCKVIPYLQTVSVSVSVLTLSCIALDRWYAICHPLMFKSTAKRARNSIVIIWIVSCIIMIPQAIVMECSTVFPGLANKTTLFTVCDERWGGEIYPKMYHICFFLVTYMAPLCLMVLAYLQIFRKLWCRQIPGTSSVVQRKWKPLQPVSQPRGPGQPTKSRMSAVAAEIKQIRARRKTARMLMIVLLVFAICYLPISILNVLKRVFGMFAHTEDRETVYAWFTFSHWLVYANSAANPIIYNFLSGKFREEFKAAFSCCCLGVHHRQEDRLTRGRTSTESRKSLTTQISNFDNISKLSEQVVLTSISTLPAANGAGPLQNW

SMILES	Ki [1]	Ki [2]	Ki [3]
O=C(c1ccc(F)cc1-c1ncccn1)N1C[C@H]2C[C@@H](Nc3ccc(Cl)cn3)[C@@H]1C2 [Example 171, ((1S,4S,6R)-6-((5-chloropyridin-2-yl)amino)-2-azabicyclo[2.2.1]heptan-2-yl)(4-fluoro-2-(pyrimidin-2-yl)phenyl)methanone]	27 nM	25 nM	1900 nM
O=C(c1ccccc1-n1nccn1)N1C[C@H]2C[C@@H](Nc3ccc(C(F)F)cn3)[C@@H]1C2 [Example 173, (2-(2H-1,2,3-triazol-2-yl)phenyl)((1S,4S,6R)-6-((5-(difluoromethyl)pyridin-2-yl)amino)-2-azabicyclo[2.2.1]heptan-2-yl)methanone]	55 nM	33 nM	264 nM
O=C(c1cccc(F)c1-c1ncccn1)N1C[C@H]2C[C@@H](Nc3ccc(C(F)F)cn3)[C@@H]1C2 [Example 174, ((1S,4S,6R)-6-((5-(difluoromethyl)pyridin-2-yl)amino)-2-azabicyclo[2.2.1]heptan-2-yl)(3-fluoro-2-(pyrimidin-2-yl)phenyl)methanone]	18 nM	15 nM	230 nM
COc1ccc(N[C@@H]2C[C@H]3C[C@@H]2N(C(=O)c2ccccc2-n2nccn2)C3)nc1 [Example 175, (2-(2H-1,2,3-triazol-2-yl)phenyl)((1S,4S,6R)-6-((5-methoxypyridin-2-yl)amino)-2-azabicyclo[2.2.1]heptan-2-yl)methanone]	170 nM	191 nM	844 nM
COc1ccc(N[C@@H]2C[C@H]3C[C@@H]2N(C(=O)c2cccc(F)c2-c2ncccn2)C3)nc1 [Example 176, (3-fluoro-2-(pyrimidin-2-yl)phenyl)((1S,4S,6R)-6-((5-methoxypyridin-2-yl)amino)-2-azabicyclo[2.2.1]heptan-2-yl)methanone]	56 nM	52 nM	1300 nM
O=C(c1ccccc1-n1nccn1)N1C[C@H]2C[C@@H](Nc3ncc(C(F)(F)F)cc3F)[C@@H]1C2 [Example 177, (2-(2H-1,2,3-triazol-2-yl)phenyl)((1S,4S,6R)-6-((3-fluoro-5-(trifluoromethyl)pyridin-2-yl)amino)-2-azabicyclo[2.2.1]heptan-2-yl)methanone]	3 nM	3 nM	200 nM
Cc1ccc(-n2nccn2)c(C(=O)N2C[C@H]3C[C@@H](Nc4ncc(C(F)(F)F)cc4F)[C@@H]2C3)n1 [Example 178, ((1S,4S,6R)-6-((3-fluoro-5-(trifluoromethyl)pyridin-2-yl)amino)-2-azabicyclo[2.2.1]heptan-2-yl)(6-methyl-3-(2H-1,2,3-triazol-2-yl)pyridin-2-yl)methanone]	6 nM	8 nM	112 nM
O=C(c1cccc(F)c1-c1ncccn1)N1C[C@H]2C[C@@H](Nc3ncc(C(F)(F)F)cc3F)[C@@H]1C2 [Example 179, (3-fluoro-2-(pyrimidin-2-yl)phenyl)((1S,4S,6R)-6-((3-fluoro-5-(trifluoromethyl)pyridin-2-yl)amino)-2-azabicyclo[2.2.1]heptan-2-yl)methanone]	5 nM	5 nM	217 nM
O=C(c1ccccc1-c1ncc(F)cn1)N1C[C@H]2C[C@@H](Nc3ncc(C(F)(F)F)cc3F)[C@@H]1C2 [Example 180, ((1S,4S,6R)-6-((3-fluoro-5-(trifluoromethyl)pyridin-2-yl)amino)-2-azabicyclo[2.2.1]heptan-2-yl)(2-(5-fluoropyrimidin-2-yl)phenyl)methanone]	6 nM	5 nM	380 nM
Cc1ccc(-n2nccn2)c(C(=O)N2C[C@H]3C[C@@H](Nc4nc5ccccc5o4)[C@@H]2C3)n1 [Example 181, ((1S,4S,6R)-6-(benzo[d]oxazol-2-ylamino)-2-azabicyclo[2.2.1]heptan-2-yl)(6-methyl-3-(2H-1,2,3-triazol-2-yl)pyridin-2-yl)methanone]	5 nM	8 nM	163 nM
O=C(c1cccc(F)c1-n1nccn1)N1C[C@H]2C[C@@H](Nc3nc4ccccc4o3)[C@@H]1C2 [Example 182, ((1S,4S,6R)-6-(benzo[d]oxazol-2-ylamino)-2-azabicyclo[2.2.1]heptan-2-yl)(3-fluoro-2-(2H-1,2,3-triazol-2-yl)phenyl)methanone]	3 nM	4 nM	218 nM
O=C(c1cccc(F)c1-c1ncccn1)N1C[C@H]2C[C@@H](Nc3nc4ccccc4o3)[C@@H]1C2 [Example 183, ((1S,4S,6R)-6-(benzo[d]oxazol-2-ylamino)-2-azabicyclo[2.2.1]heptan-2-yl)(3-fluoro-2-(pyrimidin-2-yl)phenyl)methanone]	5 nM	7 nM	206 nM
Cc1ccc(N[C@@H]2C[C@H]3C[C@@H]2N(C(=O)c2cccc(F)c2-c2ncccn2)C3)cc1 [Example 184, (3-fluoro-2-(pyrimidin-2-yl)phenyl)((1S,4S,6R)-6-(p-tolylamino)-2-azabicyclo[2.2.1]heptan-2-yl)methanone]	13 nM	15 nM	337 nM
O=C(c1cccc2cc[nH]c12)N1C[C@H]2C[C@@H](Nc3ccc(C(F)(F)F)cn3)[C@@H]1C2 [Example 185, (1H-indol-7-yl)((1S,4S,6R)-6-((5-(trifluoromethyl)pyridin-2-yl)amino)-2-azabicyclo[2.2.1]heptan-2-yl)methanone]	27 nM	33 nM	146 nM
O=C(c1cccc2cn[nH]c12)N1C[C@H]2C[C@@H](Nc3ccc(C(F)(F)F)cn3)[C@@H]1C2 [Example 186, (1H-indazol-7-yl)((1S,4S,6R)-6-((5-(trifluoromethyl)pyridin-2-yl)amino)-2-azabicyclo[2.2.1]heptan-2-yl)methanone]	123 nM	151 nM	2700 nM
Cc1cnc(C(=O)N2C[C@H]3C[C@@H](Nc4cnc(C(F)(F)F)cn4)[C@@H]2C3)c(-n2nccn2)c1 [Example 187, (5-methyl-3-(2H-1,2,3-triazol-2-yl)pyridin-2-yl)((1S,4S,6R)-6-((5-(trifluoromethyl)pyrazin-2-yl)amino)-2-azabicyclo[2.2.1]heptan-2-yl)methanone]	28 nM	30 nM	1600 nM
O=C(c1cccnc1-n1nccn1)N1C[C@H]2C[C@@H](Nc3cnc(C(F)(F)F)cn3)[C@@H]1C2 [Example 188, (2-(2H-1,2,3-triazol-2-yl)pyridin-3-yl)((1S,4S,6R)-6-((5-(trifluoromethyl)pyrazin-2-yl)amino)-2-azabicyclo[2.2.1]heptan-2-yl)methanone]	191 nM	210 nM	> 10000 nM
O=C(c1ncccc1-c1ncccn1)N1C[C@H]2C[C@@H](Nc3cnc(C(F)(F)F)cn3)[C@@H]1C2 [Example 189, (3-(pyrimidin-2-yl)pyridin-2-yl)((1S,4S,6R)-6-((5-(trifluoromethyl)pyrazin-2-yl)amino)-2-azabicyclo[2.2.1]heptan-2-yl)methanone]	14 nM	11 nM	678 nM
Cc1cnc(C(=O)N2C[C@H]3C[C@@H](Nc4cnc(C(F)(F)F)cn4)[C@@H]2C3)c(-c2ncccn2)c1 [Example 190, (5-methyl-3-(pyrimidin-2-yl)pyridin-2-yl)((1S,4S,6R)-6-((5-(trifluoromethyl)pyrazin-2-yl)amino)-2-azabicyclo[2.2.1]heptan-2-yl)methanone]	12 nM	12 nM	> 10000 nM
